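All cell lines were grown in 96-well plates and treated with compound for 48 hours. GI50: concentration for 50% inhibition of growth.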 Calls of active or inactive are those of the source. Cut-off read from the data, not from the text of the source: active = GI50 up to about 1.1 µM and inactive = higher.
Tests used:
Test in all cases: inhibition of tumour cell growth, NCI panel, 48 h
HOP-92 = tested on: HOP-92
UACC-257 = tested on: UACC-257
HCT-15 = tested on: HCT-15
LOX IMVI = tested on: LOX IMVI
LXFL 529 = tested on: LXFL 529
NCI-H522 = tested on: NCI-H522
SK-OV-3 = tested on: SK-OV-3
KM-20L2 = tested on: KM-20L2
OVCAR-4 = tested on: OVCAR-4
SNB-19 = tested on: SNB-19
KM12 = tested on: KM12
HCT-116 = tested on: HCT-116
NCI-H460 = tested on: NCI-H460
Malme-3M = tested on: Malme-3M
786-0 = tested on: 786-0
HL-60 = tested on: HL-60
SF-268 = tested on: SF-268
M14 = tested on: M14
CAKI-1 = tested on: CAKI-1
SNB-75 = tested on: SNB-75
DLD-1 = tested on: DLD-1
SF-295 = tested on: SF-295
SR = tested on: SR
RXF 393 = tested on: RXF 393
MOLT-4 = tested on: MOLT-4
EKVX = tested on: EKVX
TK-10 = tested on: TK-10
U-251 = tested on: U-251
OVCAR-3 = tested on: OVCAR-3
DMS-273 = tested on: DMS-273
SW-620 = tested on: SW-620
UACC-62 = tested on: UACC-62
SF-539 = tested on: SF-539
UO-31 = tested on: UO-31
OVCAR-8 = tested on: OVCAR-8
HOP-62 = tested on: HOP-62
CCRF-CEM = tested on: CCRF-CEM
A498 = tested on: A498
K562 = tested on: K562
NCI-H226 = tested on: NCI-H226
SK-MEL-28 = tested on: SK-MEL-28
SNB-78 = tested on: SNB-78
ACHN = tested on: ACHN
SK-MEL-2 = tested on: SK-MEL-2
COLO 205 = tested on: COLO 205
HOP-18 = tested on: HOP-18
SN12C = tested on: SN12C
NCI-H23 = tested on: NCI-H23
M19-MEL = tested on: M19-MEL
XF498 = tested on: XF498
IGROV-1 = tested on: IGROV-1
A549 = tested on: A549
HT-29 = tested on: HT-29
OVCAR-5 = tested on: OVCAR-5
RPMI-8226 = tested on: RPMI-8226
SK-MEL-5 = tested on: SK-MEL-5
HCC 2998 = tested on: HCC 2998

Measured: GI50

CC(C)(C)c1ccnc(/N=C2\N/C(=N\c3cc(C(C)(C)C)ccn3)c3ccccc32)c1
24.3 µM: HCT-15
inactive: HOP-92 22.6 µM | UACC-257 23 µM | LOX IMVI 35.9 µM | LXFL 529 41.9 µM | NCI-H522 21.6 µM | SK-OV-3 26.5 µM | KM-20L2 13.9 µM | OVCAR-4 > 100 µM | SNB-19 22.2 µM | KM12 41.8 µM | HCT-116 14.6 µM | NCI-H460 38.7 µM | Malme-3M 24.8 µM | 786-0 19.3 µM | HL-60 36.3 µM | SF-268 16.3 µM | M14 32.5 µM | CAKI-1 26.6 µM | SNB-75 > 100 µM | DLD-1 21.9 µM | SF-295 23.4 µM | SR 31.4 µM | RXF 393 22.3 µM | MOLT-4 7.14 µM | EKVX 57.9 µM | TK-10 21.4 µM | U-251 26.1 µM | OVCAR-3 17.8 µM | DMS-273 > 10 µM | SW-620 42.7 µM | UACC-62 50.1 µM | SF-539 67.1 µM | UO-31 32 µM | OVCAR-8 17.9 µM | HOP-62 31.6 µM | CCRF-CEM 59.4 µM | A498 19.9 µM | K562 41.3 µM | NCI-H226 > 100 µM | SK-MEL-28 24.4 µM | SNB-78 19.9 µM | ACHN > 100 µM | SK-MEL-2 56.9 µM | COLO 205 > 100 µM | HOP-18 18.3 µM | SN12C > 100 µM | NCI-H23 30.7 µM | M19-MEL 33.1 µM | XF498 15.5 µM | IGROV-1 23.1 µM | A549 26.1 µM | HT-29 12.4 µM | OVCAR-5 > 100 µM

O=C(Nc1ccccc1C(=O)O)C(=O)C(C(=O)c1ccccc1-c1ccccc1)C1OC(=O)c2ccccc21 (stereo not given)
16.5 µM: HCT-15
inactive: RPMI-8226 25.2 µM | SK-MEL-5 19.2 µM | UACC-257 16.7 µM | LOX IMVI 18.7 µM | LXFL 529 14.7 µM | NCI-H522 16.2 µM | SK-OV-3 30.9 µM | KM-20L2 22 µM | OVCAR-4 35 µM | SNB-19 16.1 µM | KM12 18 µM | HCT-116 22 µM | NCI-H460 17.8 µM | Malme-3M 12.2 µM | 786-0 18 µM | HL-60 23.9 µM | SF-268 16.8 µM | M14 17.1 µM | CAKI-1 36 µM | SNB-75 25.1 µM | DLD-1 23.5 µM | SF-295 25.2 µM | SR 18.3 µM | RXF 393 13.6 µM | MOLT-4 21.8 µM | EKVX 23.4 µM | TK-10 13.9 µM | U-251 15.4 µM | OVCAR-3 16.6 µM | DMS-273 26.5 µM | SW-620 27.3 µM | UACC-62 16.6 µM | SF-539 16.6 µM | UO-31 18 µM | OVCAR-8 15.7 µM | HOP-62 18 µM | CCRF-CEM 22.1 µM | A498 19.3 µM | K562 36.1 µM | NCI-H226 12.5 µM | SK-MEL-28 19.4 µM | SNB-78 > 100 µM | ACHN 34 µM | SK-MEL-2 38 µM | COLO 205 24 µM | HOP-18 12.6 µM | SN12C 17.1 µM | NCI-H23 22.8 µM | HCC 2998 16.5 µM | M19-MEL 21.1 µM | XF498 10.3 µM | IGROV-1 25.6 µM | A549 31.4 µM | HT-29 29.7 µM | OVCAR-5 23.6 µM

From ChEMBL document CHEMBL1201862, “PubChem BioAssay data set” (2004)
